Data taken from ChEMBL document CHEMBL2321725, “Optimization of non-ATP competitive CDK/cyclin groove inhibitors through REPLACE-mediated fragment assembly” (J Med Chem, 2013).
Peptide text beside a SMILES is read from it. * marks the point of attachment. X14 = Cc1nc(C(=O)*)nn1-c1cc(Cl)cc(Cl)c1; X17 = Cc1cc(C(=O)*)nn1-c1cc(Cl)cc(Cl)c1; X18 = O=C(c1ccc(-c2cc(Cl)cc(Cl)c2)o1)*; X9 = O=C(c1ccn(-c2cc(Cl)cc(Cl)c2)c1)*; X13 = O=C(c1c[nH]c(-c2cccc(F)c2)n1)*; X11 = Cc1cc(C(=O)*)nn1-c1ccc(Cl)cc1; X12 = Cc1nc(C(=O)*)nn1-c1ccc(Cl)cc1; X16 = Cc1nc(C(=O)*)nn1-c1cccc(Cl)c1; X15 = O=C(c1ccn(-c2ccc(Cl)cc2)c1)*; X2 = Cc1cc(C(=O)*)nn1-c1cccc(Cl)c1; X3 = COc1ccc(-n2nc(C(=O)*)cc2C)cc1; X6 = COc1cccc(-n2nc(C(=O)*)cc2C)c1; X1 = Cc1cccc(-n2nc(C(=O)*)nc2C)c1; X4 = O=C(c1ccc(-c2cccc(Cl)c2)o1)*; X5 = O=C(c1csc(-c2ccc(Cl)cc2)n1)*; X7 = Cc1cc(C(=O)*)nn1-c1cccc(F)c1; X10 = Cc1cc(C(=O)*)nn1-c1ccccc1; X8 = Cn1cc(C(=O)*)nc1-c1ccccc1

What was measured:
[1] = target: Cyclin-dependent kinase 4/cyclin D1 (Homo sapiens, UniProt P11802); assay: Inhibition of human recombinant CDK4/Cyclin D1 using fluoresceinyl-Ahx-Pro-Val-Lys-Arg-Arg-Leu-(3ClPhe)-Gly tracer peptide as substrate after 45 mins by fluorescent polarization binding assay
Sequence of Cyclin-dependent kinase 4/cyclin D1 (P11802 whole entry): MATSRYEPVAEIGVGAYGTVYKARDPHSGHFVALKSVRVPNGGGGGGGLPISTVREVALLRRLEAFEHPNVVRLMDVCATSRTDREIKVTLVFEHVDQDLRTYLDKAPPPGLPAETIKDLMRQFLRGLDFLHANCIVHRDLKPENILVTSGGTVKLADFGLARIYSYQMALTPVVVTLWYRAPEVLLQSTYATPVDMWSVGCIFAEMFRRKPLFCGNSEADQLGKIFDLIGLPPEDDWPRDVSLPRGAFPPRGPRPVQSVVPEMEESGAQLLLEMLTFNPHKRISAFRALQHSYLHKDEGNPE
Sequence of Cyclin-dependent kinase 4/cyclin D1 (P24385 whole entry, further chain): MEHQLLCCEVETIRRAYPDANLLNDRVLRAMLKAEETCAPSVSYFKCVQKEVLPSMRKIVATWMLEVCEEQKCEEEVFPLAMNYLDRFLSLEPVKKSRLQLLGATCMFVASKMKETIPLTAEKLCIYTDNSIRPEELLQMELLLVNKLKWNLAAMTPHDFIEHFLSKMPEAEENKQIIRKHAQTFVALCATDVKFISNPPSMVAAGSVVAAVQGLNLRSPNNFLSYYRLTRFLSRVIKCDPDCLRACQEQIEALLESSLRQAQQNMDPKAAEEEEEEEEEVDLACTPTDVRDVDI

[2] = target: Cyclin-dependent kinase 2/cyclin A (Homo sapiens, UniProt P24941); assay: Inhibition of human recombinant CDK2/Cyclin A2 using fluoresceinyl-Ahx-Pro-Val-Lys-Arg-Arg-Leu-Phe-Gly tracer peptide as substrate after 45 mins by fluorescent polarization binding assay; type: protein-complex assay

SMILES | IC50 [1] [µM] | IC50 [2] [µM]
Cc1nc(C(=O)N[C@@H](CCCNC(=N)N)C(=O)N[C@@H](CC(C)C)C(=O)NCc2cccc(Oc3ccccc3)c2)nn1-c1ccc(Cl)cc1 | > 200 | 106
Cc1nc(C(=O)N[C@@H](CCCNC(=N)N)C(=O)N[C@@H](CC(C)C)C(=O)NCc2cc(Oc3cccc(F)c3)ccn2)nn1-c1ccc(Cl)cc1 | > 200 | 53.2
Cc1nc(C(=O)N[C@@H](CCCNC(=N)N)C(=O)N[C@@H](CC(C)C)C(=O)NCc2cc(Oc3ccc(F)cc3)ccn2)nn1-c1ccc(Cl)cc1 | > 200 | 18.1
Cc1nc(C(=O)N[C@@H](CCCNC(=N)N)C(=O)N[C@@H](CC(C)C)C(=O)NCc2cc(Oc3ccc(Cl)cc3)ccn2)nn1-c1ccc(Cl)cc1 | > 500 | 54.4
Cc1ccccc1Oc1ccnc(CNC(=O)[C@H](CC(C)C)NC(=O)[C@H](CCCNC(=N)N)NC(=O)c2nc(C)n(-c3ccc(Cl)cc3)n2)c1 | > 500 | 60
Cc1nc(C(=O)N[C@@H](CCCNC(=N)N)C(=O)N[C@@H](CC(C)C)C(=O)NCc2cc(Oc3cccc(Cl)c3)ccn2)nn1-c1cc(Cl)cc(Cl)c1 | 120 | 61
Cc1nc(C(=O)N[C@@H](CCCNC(=N)N)C(=O)N[C@@H](CC(C)C)C(=O)NCc2cccc(Oc3cc(Cl)cc(Cl)c3)c2)nn1-c1cc(Cl)cc(Cl)c1 | 120 | > 180
Cc1nc(C(=O)N[C@@H](CCCNC(=N)N)C(=O)N[C@@H](CC(C)C)C(=O)NCc2cc(Oc3ccc(F)c(F)c3)ccn2)nn1-c1cc(Cl)cc(Cl)c1 | > 180 | > 180
CC[C@H](C)[C@H](NC(=O)[C@H](CC(C)C)NC(=O)[C@H](CCCNC(=N)N)NC(=O)c1nc(C)n(-c2cccc(C)c2)n1)C(=O)N[C@@H](Cc1ccccc1)C(N)=O (X1-RLIF-NH2) | 51.1 | 13.8
CC[C@H](C)[C@H](NC(=O)[C@H](CC(C)C)NC(=O)[C@H](CCCNC(=N)N)NC(=O)c1cc(C)n(-c2cccc(Cl)c2)n1)C(=O)N[C@@H](Cc1ccccc1)C(N)=O (X2-RLIF-NH2) | 70.3 | 11.9
CC[C@H](C)[C@H](NC(=O)[C@H](CC(C)C)NC(=O)[C@H](CCCNC(=N)N)NC(=O)c1cc(C)n(-c2ccc(OC)cc2)n1)C(=O)N[C@@H](Cc1ccccc1)C(N)=O (X3-RLIF-NH2) | > 180 | > 180
CC[C@H](C)[C@H](NC(=O)[C@H](CC(C)C)NC(=O)[C@H](CCCNC(=N)N)NC(=O)c1ccc(-c2cccc(Cl)c2)o1)C(=O)N[C@@H](Cc1ccccc1)C(N)=O (X4-RLIF-NH2) | > 180 | > 180
CC[C@H](C)[C@H](NC(=O)[C@H](CC(C)C)NC(=O)[C@H](CCCNC(=N)N)NC(=O)c1csc(-c2ccc(Cl)cc2)n1)C(=O)N[C@@H](Cc1ccccc1)C(N)=O (X5-RLIF-NH2) | > 180 | > 180
CC[C@H](C)[C@H](NC(=O)[C@H](CC(C)C)NC(=O)[C@H](CCCNC(=N)N)NC(=O)c1cc(C)n(-c2cccc(OC)c2)n1)C(=O)N[C@@H](Cc1ccccc1)C(N)=O (X6-RLIF-NH2) | > 100 | 64.1
CC[C@H](C)[C@H](NC(=O)[C@H](CC(C)C)NC(=O)[C@H](CCCNC(=N)N)NC(=O)c1cc(C)n(-c2cccc(F)c2)n1)C(=O)N[C@@H](Cc1ccccc1)C(N)=O (X7-RLIF-NH2) | 65.9 | 29.6
CC[C@H](C)[C@H](NC(=O)[C@H](CC(C)C)NC(=O)[C@H](CCCNC(=N)N)NC(=O)c1cn(C)c(-c2ccccc2)n1)C(=O)N[C@@H](Cc1ccccc1)C(N)=O (X8-RLIF-NH2) | > 180 | > 180
CC[C@H](C)[C@H](NC(=O)[C@H](CC(C)C)NC(=O)[C@H](CCCNC(=N)N)NC(=O)c1ccn(-c2cc(Cl)cc(Cl)c2)c1)C(=O)N[C@@H](Cc1ccccc1)C(N)=O (X9-RLIF-NH2) | > 180 | > 180
CC[C@H](C)[C@H](NC(=O)[C@H](CC(C)C)NC(=O)[C@H](CCCNC(=N)N)NC(=O)c1cc(C)n(-c2ccccc2)n1)C(=O)N[C@@H](Cc1ccccc1)C(N)=O (X10-RLIF-NH2) | 54.2 | 40.3
CC[C@H](C)[C@H](NC(=O)[C@H](CC(C)C)NC(=O)[C@H](CCCNC(=N)N)NC(=O)c1cc(C)n(-c2ccc(Cl)cc2)n1)C(=O)N[C@@H](Cc1ccccc1)C(N)=O (X11-RLIF-NH2) | 54.7 | 33.7
CC[C@H](C)[C@H](NC(=O)[C@H](CC(C)C)NC(=O)[C@H](CCCNC(=N)N)NC(=O)c1nc(C)n(-c2ccc(Cl)cc2)n1)C(=O)N[C@@H](Cc1ccccc1)C(N)=O (X12-RLIF-NH2) | 12 | 11.5
CC[C@H](C)[C@H](NC(=O)[C@H](CC(C)C)NC(=O)[C@H](CCCNC(=N)N)NC(=O)c1c[nH]c(-c2cccc(F)c2)n1)C(=O)N[C@@H](Cc1ccccc1)C(N)=O (X13-RLIF-NH2) | 68.5 | 34.3
CC[C@H](C)[C@H](NC(=O)[C@H](CC(C)C)NC(=O)[C@H](CCCNC(=N)N)NC(=O)c1nc(C)n(-c2cc(Cl)cc(Cl)c2)n1)C(=O)N[C@@H](Cc1ccccc1)C(N)=O (X14-RLIF-NH2) | 27.3 | 4
CC[C@H](C)[C@H](NC(=O)[C@H](CC(C)C)NC(=O)[C@H](CCCNC(=N)N)NC(=O)c1ccn(-c2ccc(Cl)cc2)c1)C(=O)N[C@@H](Cc1ccccc1)C(N)=O (X15-RLIF-NH2) | > 180 | > 180
CC[C@H](C)[C@H](NC(=O)[C@H](CC(C)C)NC(=O)[C@H](CCCNC(=N)N)NC(=O)c1nc(C)n(-c2cccc(Cl)c2)n1)C(=O)N[C@@H](Cc1ccccc1)C(N)=O (X16-RLIF-NH2) | 26.5 | 5.7
CC[C@H](C)[C@H](NC(=O)[C@H](CC(C)C)NC(=O)[C@H](CCCNC(=N)N)NC(=O)c1cc(C)n(-c2cc(Cl)cc(Cl)c2)n1)C(=O)N[C@@H](Cc1ccccc1)C(N)=O (X17-RLIF-NH2) | > 100 | 21.8
CC[C@H](C)[C@H](NC(=O)[C@H](CC(C)C)NC(=O)[C@H](CCCNC(=N)N)NC(=O)c1ccc(-c2cc(Cl)cc(Cl)c2)o1)C(=O)N[C@@H](Cc1ccccc1)C(N)=O (X18-RLIF-NH2) | > 180 | > 180
